Laboratory results: article PMC11768629, “Potential Interaction of Pinocembrin with Drug Transporters and Hepatic Drug-Metabolizing Enzymes” (Pharmaceuticals, 2025)

Tests used:
[1] = tested on: hOAT1-MDCK cells; test: Cell viability assay (MTT) in hOAT1-MDCK cells; assay type: cell-based, canine; conditions: tenofovir 5 µM, 48 h
Procedure: (§1) The hOAT1-MDCK cells and hOAT3-MDCK cells were treated with 1, 10, and 50 μM pinocembrin for 24 h, followed by a measurement of ^3H-PAH and ^3H-estrone sulfate cellular accumulation. […] The inhibitory effect of pinocembrin occurred in a concentration-dependent manner.
(§2) We determined whether the inhibitory effect of pinocembrin on hOAT1 and hOAT3. We studied whether pinocembrin could reduce the renal toxicity of tenofovir, a substrate of hOAT1 and hOAT3 known for inducing renal tubular dysfunction.
(§3) The confluent cells in 96-well plates were treated with pinocembrin for 48 h at 37 °C. After that, the cells were incubated with 0.5 mg/mL MTT solution for four hours. The MTT solution was removed, and DMSO (100 µL) was added to dissolve the crystal formazan. The formazan content was detected at a wavelength of 570 nm using a microplate reader. Cell viability was reported as a percentage of the vehicle-treated cells.

[2] = tested on: hOAT3-MDCK cells; test: Cell viability assay (MTT) in hOAT3-MDCK cells; assay type: cell-based, canine; conditions: tenofovir 5 µM, 48 h
Procedure: as §1, §2, §3

C[C@H](Cn1cnc2c(N)ncnc21)OCP(=O)(O)O [tenofovir]
cell viability [1]: significantly reduced the cell viability
cell viability [2]: did not affect the viability
